From patent publication US6753000B2, “Hydroxystilbene/ascorbic acid compositions for treating skin afflictions” (L'Oreal, priority 1999, dated 2004)

Test system: normal human dermal fibroblast cultures
Assay: Incorporation of radioactive (tritiated) thymidine into normal human dermal fibroblast cultures (fibroblast proliferation)
Assay type: cell-based
Conditions: for % (thymidine incorporation relative to untreated control = 100) / cpm (counts per minute), tritiated thymidine incorporated: 48 hours contact, 24 hours labeling, EGF 1.67 × 10^−3 μM, vitamin C 20 μM, resveratrol 5 μM, or 5 μM resveratrol + 20 μM vitamin C; for cpm (counts per minute), tritiated thymidine incorporated: untreated control 10320; for %, difference relative to the untreated control / cpm, difference relative to the untreated control: same treatments, value in brackets
Protocol: The study has carried out by measuring the incorporation of radioactive thymidine into normal human dermal fibroblast cultures.
The fibroblast cultures were prepared according to the standard methods of cell culturing, i.e., in MEM/M199 medium marketed by Gibco, in the presence of sodium bicarbonate (1.87 mg/ml), L-glutamine (2 mM), penicillin (50 IU/ml) and 10% foetal calf serum (Gibco).
The test was carried out on cell cultures at 80% of confluence on 24-well plates. Resveratrol, at a concentration of 1.25 μM and 5 μM, was placed in contact with the cells for 48 hours. Labeling with tritiated thymidine ([methyl-3H] thymidine marketed by Amersham, 82 Ci/mmol) was carried out for 24 hours.
The level of tritiated thymidine incorporated was measured at the end of the test by acidic precipitation of the proteins on filters and counting by liquid scintillation.
The results were evaluated relative to a control consisting of cells which had not been treated.
A positive control [EGF: Epidermal Growth Factor] at 1.67×10^−3 μM, which was known to stimulate fibroblast proliferation, was introduced into the test by way of reference.

Compound	% (thymidine incorporation relative to untreated control = 100) [%]	cpm (counts per minute), tritiated thymidine incorporated [cpm]	%, difference relative to the untreated control	cpm, difference relative to the untreated control
Oc1ccc(C=Cc2cc(O)cc(O)c2)cc1 [resveratrol, 3,4′,5-Trihydroxystilbene]	110	11365	+10%	(+1045) cpm
O=C1O[C@H]([C@@H](O)CO)C(O)=C1O [vitamin C, ascorbic acid]	132	13595	+32%	(+3275) cpm
EGF: Epidermal Growth Factor, positive control known to stimulate fibroblast proliferation	283	29214	+183%	(+18894) cpm
